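Assay format: 96-well plates, 48-hour exposure. The concentration for 50% growth inhibition is given as GI50. At the TGI there is no net growth.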 Where a SMILES comes first, the peptide text is derived from it.
Assays:
Experiment in all cases: NCI anticancer screen, dose series, 48 h
[1] = test system: A498 renal
[2] = test system: A549 NSCLC
[3] = test system: HCT-116 colon
[4] = test system: KM20L2 colon
[5] = test system: OVCAR-8 ovarian
[6] = test system: SK-MEL-5 melanoma
[7] = test system: SNB-78 CNS
[8] = test system: SR leukemia
[9] = test system: TK-10 renal
[10] = test system: LXFL 529 NSCLC

## O=C(O)c1ccc(O)c(N=Nc2cc(S(=O)(=O)O)c3ccccc3c2O)c1
[1]
  TGI: > 100 µM
[2]
  TGI: > 100 µM
[3]
  TGI: 37.4 µM
[4]
  TGI: > 100 µM
[5]
  TGI: > 100 µM
[6]
  TGI: > 100 µM
[7]
  TGI: > 100 µM
[8]
  TGI: > 100 µM
[9]
  TGI: > 100 µM

## Cc1c(C(=O)CC(=O)C(=O)Nc2ccc(Cl)c(Cl)c2)[n+](=O)c2ccccc2n1[O-]
[1]
  TGI: > 100 µM
[2]
  TGI: 69.3 µM
[3]
  TGI: 35.4 µM
[4]
  TGI: > 100 µM
[10]
  TGI: 32.4 µM
[5]
  TGI: 43.6 µM
[6]
  TGI: 43.9 µM
[7]
  TGI: > 100 µM
[9]
  TGI: > 100 µM

## Nc1ncnc(NC2C=C(CO)C(O)C2O)c1[N+](=O)[O-] (centres undefined)
[1]
  TGI: > 100 µM
[2]
  TGI: > 100 µM
[3]
  TGI: 75.4 µM
[4]
  TGI: > 100 µM
[10]
  TGI: > 100 µM
[5]
  TGI: > 100 µM
[6]
  TGI: > 100 µM
[7]
  TGI: > 100 µM
[8]
  TGI: > 100 µM
[9]
  TGI: > 100 µM

## CC(C)NCC(O)COC(=O)c1cccs1 (centres undefined)
[2]
  TGI: > 100 µM
[4]
  TGI: > 100 µM
[10]
  TGI: > 100 µM
[5]
  TGI: > 100 µM
[6]
  TGI: > 100 µM
[7]
  TGI: > 100 µM
[9]
  TGI: > 100 µM

## ClC1CCC2OOC1O2 (centres undefined)
[1]
  TGI: > 100 µM
[2]
  TGI: > 100 µM
[3]
  TGI: > 100 µM
[4]
  TGI: > 100 µM
[5]
  TGI: > 100 µM
[6]
  TGI: > 100 µM
[7]
  TGI: > 100 µM
[8]
  TGI: > 100 µM
[9]
  TGI: > 100 µM

## CCc1ccccc1NC(=O)CCc1n[nH]c(=S)o1
[1]
  TGI: > 100 µM
[2]
  TGI: > 100 µM
[3]
  TGI: 42.5 µM
[4]
  TGI: > 100 µM
[10]
  TGI: > 100 µM
[5]
  TGI: > 100 µM
[6]
  TGI: > 100 µM
[7]
  TGI: > 100 µM
[9]
  TGI: > 100 µM

## COC(=O)C(C(=O)C(=O)Nc1ccccc1C(C)=O)c1nc2ccc(Cl)cc2[nH]c1=O (centres undefined)
[1]
  TGI: > 100 µM
[2]
  TGI: > 100 µM
[3]
  TGI: > 100 µM
[4]
  TGI: > 100 µM
[10]
  TGI: > 100 µM
[5]
  TGI: > 100 µM
[6]
  TGI: > 100 µM
[7]
  TGI: > 100 µM
[9]
  TGI: > 100 µM

## CN(C)C(=O)/N=c1\ss/c(=N\C(=S)N(C)C)n1-c1ccccc1
[1]
  TGI: > 100 µM
[2]
  GI50: 0.0483 µM
  TGI: > 100 µM
[3]
  TGI: 47.1 µM
[4]
  TGI: > 100 µM
[10]
  TGI: > 88.4 µM
[5]
  TGI: > 61.1 µM
[6]
  TGI: > 100 µM
[7]
  TGI: > 100 µM
[8]
  TGI: > 100 µM
[9]
  TGI: 84.7 µM

## COc1cc(-c2cc(=O)c3ccccc3o2)ccc1N
[1]
  TGI: > 100 µM
[2]
  TGI: > 100 µM
[3]
  TGI: > 100 µM
[4]
  TGI: > 100 µM
[10]
  TGI: > 100 µM
[5]
  TGI: > 100 µM
[6]
  TGI: > 100 µM
[7]
  TGI: > 100 µM
[9]
  TGI: > 100 µM

## CCC(C)OC(=O)C1C2CCC(O2)C1C(=O)O (centres undefined)
[1]
  TGI: > 100 µM
[2]
  TGI: > 100 µM
[3]
  TGI: > 56.3 µM
[4]
  TGI: > 63.5 µM
[10]
  TGI: > 100 µM
[5]
  TGI: > 100 µM
[6]
  TGI: > 100 µM
[7]
  TGI: > 100 µM
[8]
  TGI: 40.3 µM
[9]
  TGI: > 100 µM

## O=C(/C=C\c1cccc2ccccc12)c1cccs1
[1]
  TGI: 35.6 µM
[2]
  TGI: 34.5 µM
[3]
  TGI: 10.7 µM
[4]
  TGI: 22.5 µM
[10]
  TGI: 22.9 µM
[5]
  TGI: 24.9 µM
[6]
  TGI: 26.1 µM
[7]
  TGI: 34.5 µM
[9]
  TGI: 33.2 µM

## COC(=O)C(C(=O)C(=O)NC1=C(Cl)C(=O)c2ccccc2C1=O)c1csc(-n2nc(-c3ccccc3)cc2-c2ccccc2)n1 (centres undefined)
[1]
  TGI: > 100 µM
[2]
  TGI: > 100 µM
[3]
  TGI: > 100 µM
[4]
  TGI: > 100 µM
[10]
  TGI: > 100 µM
[5]
  TGI: > 100 µM
[7]
  TGI: > 100 µM
[8]
  TGI: > 100 µM
[9]
  TGI: > 100 µM

## CC(C)CC(NC(=O)C(CC(C)C)NC(=O)C(Cc1cnc[nH]1)NC(=O)C(C)NC(=O)C(NC(=O)C(C)NC(=O)C(Cc1c[nH]c2ccccc12)NC(=O)C(CCC(=O)O)NC(=O)C(N)Cc1ccccc1)C(C)C)C(N)=O (centres undefined) (H-FEWAVAHLL-NH2; configuration not given here)
[1]
  GI50: > 100 µM
  TGI: > 100 µM
[2]
  GI50: > 100 µM
  TGI: > 100 µM
[3]
  GI50: > 100 µM
  TGI: > 100 µM
[4]
  TGI: > 100 µM
[10]
  TGI: > 100 µM
[5]
  GI50: > 100 µM
  TGI: > 100 µM
[6]
  TGI: > 12.5 µM
[7]
  TGI: > 100 µM
[8]
  GI50: > 100 µM
  TGI: > 100 µM
